Legend:
[1] = test system: Wnt3a-dependent TCF/LEF activation; assay: TOP-FLASH luciferase assay without the addition of Notum (control); assay type: cell-based; details: concentrations up to 1 mM, no Notum added
Description: . OPTS is a common lipase substrate with an octanoyl lipid linked to a fluorescent moiety. It is not a natural Notum substrate; however, it can be used to quantify the enzymatic activity of purified Notum protein[23],[25],[28]. […]. […]. […]. The stable HEK293 STF cell line[31] carrying the Super Top Flash firefly luciferase reporter was split into 96-well plates and transfected 24 h later with a constitutive Renilla luciferase plasmid (pRL-TK, Promega) at 20 ng DNA per well using Lipofectamine 2000 (Life Technologies, UK). The media were replaced with test media 16 h later. […] The firefly and Renilla luciferase activities were measured 24 h later with Dual-Glo luciferase reporter assay system (Promega, Madison, WI) using an Ascent Lunimoskan luminometer (Labsystems). The firefly luciferase activity was normalized to Renilla luciferase activity (relative light unit, RLU). Luciferase reporter assays were performed in triplicate.
Supplementary Figure 1. […].

Notum [2] = molecular target: T1, Notum (Homo sapiens, UniProt Q6P988, C330S); assay: SPR equilibrium binding to biotinylated Notum on streptavidin chip; parameters: The human Notum enzyme core comprising amino acids S81–T451 with a C330S mutation; made in house; dialyzed conditioned medium used without purification; details: Fig 2a
T1 sequence (Q6P988 81-451 C330S): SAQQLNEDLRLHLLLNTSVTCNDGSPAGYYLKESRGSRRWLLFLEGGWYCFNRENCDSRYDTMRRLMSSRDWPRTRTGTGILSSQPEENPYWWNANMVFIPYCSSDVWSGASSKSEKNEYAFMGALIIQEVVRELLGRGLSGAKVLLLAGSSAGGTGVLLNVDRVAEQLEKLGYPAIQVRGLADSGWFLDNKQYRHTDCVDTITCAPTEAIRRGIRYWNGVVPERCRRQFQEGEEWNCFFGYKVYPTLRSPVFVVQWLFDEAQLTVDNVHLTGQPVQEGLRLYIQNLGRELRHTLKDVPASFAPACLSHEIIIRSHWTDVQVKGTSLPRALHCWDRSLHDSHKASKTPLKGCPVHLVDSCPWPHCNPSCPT

Notum [3] = molecular target: T1, Notum; assay: Thermal shift assay (SYPRO Orange) of Notum; details: for Thermoflour melting curve fluorescence of Notum: Fig 2c
Description: Reference wells, i.e. solutions without compounds were used to compare the melting temperature (Tm). The experiments were performed in triplicate.

brain = details: at plasma concentration 150 µM; cited from earlier work

## Cn1c(=O)c2c(ncn2C)n(C)c1=O [caffeine, 1,3,7-trimethylxanthine]
[1]
  Effect on Wnt3a-induced luciferase activity without Notum: did not affect luciferase activity
Notum [2]; caffeine conc. 2.861e-8 (unit not given)
  SPR Response: 1.14
Notum [2]; caffeine conc. 5.722e-8 (unit not given)
  SPR Response: 2.29
Notum [2]; caffeine conc. 1.144e-7 (unit not given)
  SPR Response: 3.61
Notum [2]; caffeine conc. 2.289e-7 (unit not given)
  SPR Response: 4.16
Notum [2]; caffeine conc. 4.578e-7 (unit not given)
  SPR Response: 4.74
Notum [2]; caffeine conc. 9.155e-7 (unit not given)
  SPR Response: 5.58
Notum [2]; caffeine conc. 1.831e-6 (unit not given)
  SPR Response: 6.88
Notum [2]; caffeine conc. 3.662e-6 (unit not given)
  SPR Response: 9.64
Notum [2]; caffeine conc. 7.324e-6 (unit not given)
  SPR Response: 12.15
Notum [2]; caffeine conc. 1.465e-5 (unit not given)
  SPR Response: 16.8
Notum [2]; caffeine conc. 2.93e-5 (unit not given)
  SPR Response: 23.59
Notum [2]; caffeine conc. 5.859e-5 (unit not given)
  SPR Response: 31.69
Notum [2]; caffeine conc. 0.0001172 (unit not given)
  SPR Response: 41.28
Notum [2]; caffeine conc. 0.0002344 (unit not given)
  SPR Response: 50.77
Notum [2]; caffeine conc. 0.0004687 (unit not given)
  SPR Response: 61.29
Notum [2]; caffeine conc. 0.0009375 (unit not given)
  SPR Response: 71.68
Notum [2]; caffeine conc. 0.001875 (unit not given)
  SPR Response: 81.69
Notum [3]
  Melting temperature (Tm) of Notum: 66.4 °C
Notum [3]; 2-fold dilution series 1-1000 µM, dose-dependent
  Concentration from which the Tm of Notum starts to increase: 32 µM
Notum [3]; compound 500 µM, Temperature 24.5
  Thermoflour melting curve fluorescence of Notum: 709.927
Notum [3]; compound 500 µM, Temperature 25.5
  Thermoflour melting curve fluorescence of Notum: 611.276
Notum [3]; compound 500 µM, Temperature 26.5
  Thermoflour melting curve fluorescence of Notum: 506.395
Notum [3]; compound 500 µM, Temperature 27.5
  Thermoflour melting curve fluorescence of Notum: 407.771
Notum [3]; compound 500 µM, Temperature 28.5
  Thermoflour melting curve fluorescence of Notum: 329.046
Notum [3]; compound 500 µM, Temperature 29.5
  Thermoflour melting curve fluorescence of Notum: 252.252
Notum [3]; compound 500 µM, Temperature 30.5
  Thermoflour melting curve fluorescence of Notum: 185.878
Notum [3]; compound 500 µM, Temperature 31.5
  Thermoflour melting curve fluorescence of Notum: 116.312
Notum [3]; compound 500 µM, Temperature 32.5
  Thermoflour melting curve fluorescence of Notum: 36.8288
Notum [3]; compound 500 µM, Temperature 33.5
  Thermoflour melting curve fluorescence of Notum: -33.9223
Notum [3]; compound 500 µM, Temperature 34.5
  Thermoflour melting curve fluorescence of Notum: -98.3184
Notum [3]; compound 500 µM, Temperature 35.5
  Thermoflour melting curve fluorescence of Notum: -160.078
Notum [3]; compound 500 µM, Temperature 36.5
  Thermoflour melting curve fluorescence of Notum: -227.439
Notum [3]; compound 500 µM, Temperature 37.5
  Thermoflour melting curve fluorescence of Notum: -299.113
Notum [3]; compound 500 µM, Temperature 38.5
  Thermoflour melting curve fluorescence of Notum: -356.595
Notum [3]; compound 500 µM, Temperature 39.5
  Thermoflour melting curve fluorescence of Notum: -384.234
Notum [3]; compound 500 µM, Temperature 40.5
  Thermoflour melting curve fluorescence of Notum: -401.667
Notum [3]; compound 500 µM, Temperature 41.5
  Thermoflour melting curve fluorescence of Notum: -422.587
Notum [3]; compound 500 µM, Temperature 42.5
  Thermoflour melting curve fluorescence of Notum: -436.447
Notum [3]; compound 500 µM, Temperature 43.5
  Thermoflour melting curve fluorescence of Notum: -433.953
Notum [3]; compound 500 µM, Temperature 44.5
  Thermoflour melting curve fluorescence of Notum: -407.23
Notum [3]; compound 500 µM, Temperature 45.5
  Thermoflour melting curve fluorescence of Notum: -370.506
Notum [3]; compound 500 µM, Temperature 46.5
  Thermoflour melting curve fluorescence of Notum: -329.743
Notum [3]; compound 500 µM, Temperature 47.5
  Thermoflour melting curve fluorescence of Notum: -279.561
Notum [3]; compound 500 µM, Temperature 48.5
  Thermoflour melting curve fluorescence of Notum: -224.386
Notum [3]; compound 500 µM, Temperature 49.5
  Thermoflour melting curve fluorescence of Notum: -154.955
Notum [3]; compound 500 µM, Temperature 50.5
  Thermoflour melting curve fluorescence of Notum: -68.5872
Notum [3]; compound 500 µM, Temperature 51.5
  Thermoflour melting curve fluorescence of Notum: 21.0565
Notum [3]; compound 500 µM, Temperature 52.5
  Thermoflour melting curve fluorescence of Notum: 104.977
Notum [3]; compound 500 µM, Temperature 53.5
  Thermoflour melting curve fluorescence of Notum: 203.138
Notum [3]; compound 500 µM, Temperature 54.5
  Thermoflour melting curve fluorescence of Notum: 335.417
Notum [3]; compound 500 µM, Temperature 55.5
  Thermoflour melting curve fluorescence of Notum: 489.845
Notum [3]; compound 500 µM, Temperature 56.5
  Thermoflour melting curve fluorescence of Notum: 650.176
Notum [3]; compound 500 µM, Temperature 57.5
  Thermoflour melting curve fluorescence of Notum: 838.955
Notum [3]; compound 500 µM, Temperature 58.5
  Thermoflour melting curve fluorescence of Notum: 1115.22
Notum [3]; compound 500 µM, Temperature 59.5
  Thermoflour melting curve fluorescence of Notum: 1497.71
Notum [3]; compound 500 µM, Temperature 60.5
  Thermoflour melting curve fluorescence of Notum: 2046.51
Notum [3]; compound 500 µM, Temperature 61.5
  Thermoflour melting curve fluorescence of Notum: 2842.67
Notum [3]; compound 500 µM, Temperature 62.5
  Thermoflour melting curve fluorescence of Notum: 4016.35
Notum [3]; compound 500 µM, Temperature 63.5
  Thermoflour melting curve fluorescence of Notum: 5616.14
Notum [3]; compound 500 µM, Temperature 64.5
  Thermoflour melting curve fluorescence of Notum: 7625.37
Notum [3]; compound 500 µM, Temperature 65.5
  Thermoflour melting curve fluorescence of Notum: 9844.37
Notum [3]; compound 500 µM, Temperature 66.5
  Thermoflour melting curve fluorescence of Notum: 11980.7
Notum [3]; compound 500 µM, Temperature 67.5
  Thermoflour melting curve fluorescence of Notum: 13878
Notum [3]; compound 500 µM, Temperature 68.5
  Thermoflour melting curve fluorescence of Notum: 15429.9
Notum [3]; compound 500 µM, Temperature 69.5
  Thermoflour melting curve fluorescence of Notum: 16655.6
Notum [3]; compound 500 µM, Temperature 70.5
  Thermoflour melting curve fluorescence of Notum: 17623.3
Notum [3]; compound 500 µM, Temperature 71.5
  Thermoflour melting curve fluorescence of Notum: 18396.4
Notum [3]; compound 500 µM, Temperature 72.5
  Thermoflour melting curve fluorescence of Notum: 18998.9
Notum [3]; compound 500 µM, Temperature 73.5
  Thermoflour melting curve fluorescence of Notum: 19494.1
Notum [3]; compound 500 µM, Temperature 74.5
  Thermoflour melting curve fluorescence of Notum: 19890
Notum [3]; compound 500 µM, Temperature 75.5
  Thermoflour melting curve fluorescence of Notum: 20222.9
Notum [3]; compound 500 µM, Temperature 76.5
  Thermoflour melting curve fluorescence of Notum: 20511.4
Notum [3]; compound 500 µM, Temperature 77.5
  Thermoflour melting curve fluorescence of Notum: 20720.5
Notum [3]; compound 500 µM, Temperature 78.5
  Thermoflour melting curve fluorescence of Notum: 20881
Notum [3]; compound 500 µM, Temperature 79.5
  Thermoflour melting curve fluorescence of Notum: 21035.4
Notum [3]; compound 500 µM, Temperature 80.5
  Thermoflour melting curve fluorescence of Notum: 21171.7
Notum [3]; compound 500 µM, Temperature 81.5
  Thermoflour melting curve fluorescence of Notum: 21266.6
Notum [3]; compound 500 µM, Temperature 82.5
  Thermoflour melting curve fluorescence of Notum: 21332.1
Notum [3]; compound 500 µM, Temperature 83.5
  Thermoflour melting curve fluorescence of Notum: 21375.7
Notum [3]; compound 500 µM, Temperature 84.5
  Thermoflour melting curve fluorescence of Notum: 21418.3
Notum [3]; compound 500 µM, Temperature 85.5
  Thermoflour melting curve fluorescence of Notum: 21484.5
Notum [3]; compound 500 µM, Temperature 86.5
  Thermoflour melting curve fluorescence of Notum: 21557.9
Notum [3]; compound 500 µM, Temperature 87.5
  Thermoflour melting curve fluorescence of Notum: 21630
Notum [3]; compound 500 µM, Temperature 88.5
  Thermoflour melting curve fluorescence of Notum: 21668.9
Notum [3]; compound 500 µM, Temperature 89.5
  Thermoflour melting curve fluorescence of Notum: 21631
Notum [3]; compound 500 µM, Temperature 90.5
  Thermoflour melting curve fluorescence of Notum: 21594.2
Notum [3]; compound 500 µM, Temperature 91.5
  Thermoflour melting curve fluorescence of Notum: 21585.2
Notum [3]; compound 500 µM, Temperature 92.5
  Thermoflour melting curve fluorescence of Notum: 21573.1
Notum [3]; compound 500 µM, Temperature 93.5
  Thermoflour melting curve fluorescence of Notum: 21559.5
Notum [3]; compound 500 µM, Temperature 94.5
  Thermoflour melting curve fluorescence of Notum: 21527.2
Notum [3]; compound 500 µM, Temperature 95.5
  Thermoflour melting curve fluorescence of Notum: 21485.4
Notum [3]; compound 500 µM, Temperature 96.5
  Thermoflour melting curve fluorescence of Notum: 21486.2
Notum [3]; compound 500 µM, Temperature 97.5
  Thermoflour melting curve fluorescence of Notum: 21505.1
Notum [3]; compound 500 µM, versus Notum without compounds
  ∆Tm of Notum: 2.8 °C
brain
  Adverse effects on the brain: does not appear to have adverse effects on the brain

— publication PMC7544826 (Communications Biology, 2020)
